Reference: patent US5928868A, “Three hybrid screening assay” (Massachusetts Institute of Technology, priority 1997, dated 1999)

Assays:
[1] = target: T1, Gal 4 activation domain-human FKBP12 and Gal4 DNA binding domain-hormone binding domain of rat glucocorticoid receptor (UniProt P06536+P62942, C656G/F620S); conditions: 10 μM FK506 with 1 μM dexamethasone-FK506, 30 mM 3-aminotriazole, three days
Experimental: A three-hybrid assay using a second Gal4 DNA binding domain and activation domain as described by Fields et al. (U.S. Pat. No. 5,468,614) and by Durfee et al. (1993) Genes and Development vol 7, pg 555-569 was evaluated. The hormone binding domain of rat glucocorticoid receptor (residues 497-795) containing either a single or double mutations (C656G and F620S) was PCR amplified using primers tagged with restriction sites and subcloned into the vector pASII to encode a fusion protein between the Gal4 DNA binding domain and the hormone binding domain of rat glucocorticoid receptor to give a plasmid pASHBD. The coding sequence of human FKBP12 was PCR amplified and subcloned into the vector pACTII to include a fusion protein between Gal 4 activation domain and human FKBP12. The resultant vector is called pACTFKBP. The vectors pASHBD and pACTFKBP were transformed into the yeast strain Y190 using lithium acetate method and the transformed yeast were selected on SC (Leu^-, Trp^-).

[2] = target: T1, Gal 4 activation domain-human FKBP12 and Gal4 DNA binding domain-hormone binding domain of rat glucocorticoid receptor; type: cell-based, yeast strain Y190; conditions: FK506 1 to 10 μM with 1 μM dexamethasone-FK506, 30° C., 12-16 hours
Experimental: The above yeast system has both a His- biosynthetic gene and a LacZ reporter gene as reporters for detection of three-hybrid interactions. We performed liquid β-galactosidase assay as follows. […] The culture were shaken vigorously at 30° C. for 12-16 hours. The yeast were harvested and the amount of β-galactosidase activity were quantified using established procedure (Current Protocol in Molecular Biology, Chapt. 13). […] This system is applied for screening a cDNA library to identify FKBPs that binds to FK506. The screening procedures are identical to those employed in Example 1.

[3] = test system: FK506 binding proteins (FKBP); conditions: cited from earlier work
[4] = target: transcriptional activator-FKBP12 and Lex A DNA Binding Domain-Hormone Binding Domain of the Rat Glucocorticoid Receptor (UniProt P06536+P62942, C656G/F620S); assay: Yeast three hybrid screen, Lex A system (EGY48; lacZ and leu 2 reporters); type: cell-based, Saccharomyces cerevisiae (EGY 48); conditions: 2% galactose
Description: A first vector containing the cDNA fragment encoding FKBP 12-transcriptional module was formed as follows. The cDNA encoding FKBP 12 was originally obtained from a human cDNA library prepared according to well known techniques (Current Protocols in Molecular Biology). The cDNA encoding the FKBP12 was amplified by PCR and subcloned into the EcoRI and XhoI sites of the pJG4-5 vector where the pJG4-5 vector already contains the transcriptional activator module. (Current Protocols in Molecular Biology). The resulting vector is called pJGFKBP.
A second vector encoding the hormone binding domain of rat glucocorticoid receptor (FIG. 4) and the Lex A binding protein was made as follows: A clone containing the full length rat glucocorticoid receptor with the C656G mutation was obtained according to Chakrabati et al. Journal of Biological Chemistry, (1991) vol 266, pp22075-22078. A fragment encoding amino acid residues 497-795 of the protein with the F620S mutation was generated by a standard two-step PCR reaction routinely used for the creation of point mutations. This fragment was flanked by restriction sites for MfeI and XhoI, and was subcloned into the EcoRI and XhoI sites of the pEG202 vector (Current Protocols in Molecular Biology) where the pEG202 vector contains the sequence which encodes for a protein which binds the bacterial Lex A operator. The resulting hybrid construct, designated pEGHDP encodes the second hybrid protein in the assay.
A third vector identified as pSH18-34 and containing the lacZ reporter gene downstream of a number of Lex A operators was made following standard techniques. (Current Protocols in Molecular Biology).
Saccharomyces cerevisiae (EGY 48) [Current Protocols on Molecular Biology], was transformed with the three vectors described above using standard lithium acetate transformation procedures. Positive transformants were selected by plating cells on complete minimal media yeast dropout plates containing 2% glucose, and lacking histidine, tryptophan and uracil. The transformed EGY48 yeast were then screened as described below.
(FIG. 6). […] This experiment was also performed on similar plates which were also leu^-. The leu 2 gene is used in EGY48 as a second reporter gene. Only yeast that grow in the absence of leucine contain a trimeric complex. These yeast grew well, with isolated colonies clearly visible at two days. Two control experiments were conducted by plating the transformed EGY48 strain onto complete minimal media Ura^-, His^-, Trp^- yeast dropout plates as in the aforementioned cases except the plates contained 2% glucose instead of 2% galactose. In the absence of galactose, the hybrid transcriptional activator-FKBP12 protein was not expressed since the gene encoding it is under the Gal1 promoter. […]

[5] = test system: Jurkat cDNA library subcloned into pJG4-5; conditions: 1 μM dexamethasone-FK506; growth inhibited by 10 μM FK506
Experimental: The yeast strain: EGY48 ura3 trp1 his3 Lex A operator-LEU 2; was transformed with pEGHDP and PSH18-34 and plated onto synthetic complete (SC) medium (His^-, Ura^-). The resultant EGY48 harboring pEGHBD and pSH18-34 was transformed with a Jurkat cDNA library subcloned into pJG4-5. […] Colonies were collected between days four and ten. All colonies were plated onto SC medium (His^-, Ura^-, Trp^-, Leu^-) containing galactose.

[6] = test system: glucocorticoid receptor; conditions: cited from earlier work

Chain of transcriptional activator-FKBP12 and Lex A DNA Binding Domain-Hormone Binding Domain of the Rat Glucocorticoid Receptor (P62942 2-108): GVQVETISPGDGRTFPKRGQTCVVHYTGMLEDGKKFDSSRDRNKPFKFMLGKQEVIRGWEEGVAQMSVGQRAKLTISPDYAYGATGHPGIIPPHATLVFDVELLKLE
Chain of transcriptional activator-FKBP12 and Lex A DNA Binding Domain-Hormone Binding Domain of the Rat Glucocorticoid Receptor (P06536 497-795 F620S/C656G): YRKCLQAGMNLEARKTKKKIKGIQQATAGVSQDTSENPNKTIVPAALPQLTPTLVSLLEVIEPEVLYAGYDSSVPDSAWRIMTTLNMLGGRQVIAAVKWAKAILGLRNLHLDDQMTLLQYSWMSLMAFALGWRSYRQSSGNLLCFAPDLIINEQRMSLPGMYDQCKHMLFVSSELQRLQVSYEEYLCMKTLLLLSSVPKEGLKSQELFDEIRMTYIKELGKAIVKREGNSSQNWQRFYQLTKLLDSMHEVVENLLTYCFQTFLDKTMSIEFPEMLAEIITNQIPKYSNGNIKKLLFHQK
T1 sequence (P62942 2-108): as the sequence (P62942 2-108) above
T1 sequence (P06536 497-795 F620S/C656G): as the sequence (P06536 497-795 F620S/C656G) above

**Q.** What does the source list for `C=CC[C@@H]1/C=C(\C)C[C@H](C)C[C@H](OC)[C@H]2O[C@@](O)(C(=O)C(=O)N3CCCC[C@H]3C(=O)O[C@H](/C(C)=C/[C@@H]3CC[C@@H](O)[C@H](OC)C3)[C@H](C)[C@@H](O)CC1=O)[C@H](C)C[C@@H]2OC` [FK506]?
**A.** yeast colonies on selective plates in competition with hybrid ligand [1]: absent; β-galactosidase activity in competition with hybrid ligand [2]: decrease in a FK506 dose-dependent manner; binding affinity to FKBPs when linked through the effector domain ([3]; FK506 linked through the effector domain): low nanomolar binding affinity; binding affinities for FKBPs ([3]; free FK506): in the nanomolar range; competitive inhibition of trimeric complex formation / Lac Z activation (yeast color) ([4]; 10 μM FK506 with 1 μM dexamethasone-FK506 hybrid ligand): all of the yeast remained white

**Q.** Which “reporter gene activation (Lac Z, blue color on X-Gal)” value ([4]; 1 μM hybrid ligand, Ura-, His-, Trp- plates with X-Gal) does the source give for dexamethasone-FK506 here?
**A.** the yeast were blue at three days

**Q.** And the “time at which light blue color signifying reporter gene activation began to arise” value ([4]; 1 μM hybrid ligand, X-Gal plates)?
**A.** approximately 36 hours

**Q.** And the “growth in the absence of leucine (leu 2 reporter gene)” value ([4]; 1 μM hybrid ligand, leu- plates)?
**A.** grew well

**Q.** What about the “protein encoded by cDNA clones isolated with the hybrid ligand” value [5] of the same compound?
**A.** found to encode human FKBP12

**Q.** Which “affinity for the glucocorticoid receptor” value [6] does the source give for `C[C@@H]1C[C@H]2[C@@H]3CCC4=CC(=O)C=C[C@]4(C)[C@@]3(F)[C@@H](O)C[C@]2(C)[C@@]1(O)C(=O)CO` [dexamethasone] here?
**A.** high affinity
